Results reported in PubChem BioAssay AID330 (DTP/NCI, 2004).
“And” between values parts separate entries of the source, which are not always exact repeats. Identical values can stand only once. Toxic doses and inconclusive results are not listed. Rule for the calls: active = survival T/C of 150% or more; inactive = T/C below 125% in these data.

Test system: P388 leukemia ip, CD2F1 mice, survival T/C
Test: NCI In Vivo Anticancer Drug Screen. Data for tumor model P388 Leukemia (intraperitoneal) in CD2F1 (CDF1) mice
Details: endpoint: median survival time, higher = longer survival
How it was run: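 Mice carrying the transplanted tumor received test compound or vehicle. Survival was recorded in each group, and the value is the treated-group measurement divided by that of the vehicle-treated control group.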

[1] = dose: 50.0 mg/kg/injection, schedule: Q01DX009 (ip), vehicle: saline with Tween-80
[2] = dose: 100.0 mg/kg/injection, schedule: Q01DX009 (ip), vehicle: saline with Tween-80
[3] = dose: 25.0 mg/kg/injection, schedule: Q01DX009 (ip), vehicle: water
[4] = dose: 50.0 mg/kg/injection, schedule: Q01DX009 (ip), vehicle: water
[5] = dose: 200.0 mg/kg/injection, schedule: Q01DX009 (ip), vehicle: saline with Tween-80
[6] = dose: 50.0 mg/kg/injection, schedule: Q01DX009 (ip), vehicle: saline
[7] = dose: 100.0 mg/kg/injection, schedule: Q01DX009 (ip), vehicle: saline
[8] = dose: 200.0 mg/kg/injection, schedule: Q01DX009 (ip), vehicle: saline
[9] = dose: 50.0 mg/kg/injection, schedule: Q04DX003 (ip), vehicle: Klucel (hydroxypropylcellulose) (HPC)
[10] = dose: 100.0 mg/kg/injection, schedule: Q04DX003 (ip), vehicle: Klucel (hydroxypropylcellulose) (HPC)
[11] = dose: 400.0 mg/kg/injection, schedule: Q01DX009 (ip), vehicle: saline with Tween-80

Measured: T/C

CC(N[Si](c1ccccc1)(c1ccccc1)C(C)(C)C)c1ccccc1 (stereo not given)
inactive: dose: 50.0 mg/kg/injection, schedule: Q01DX005 (ip), vehicle: saline with Tween-80 98 % of control | dose: 100.0 mg/kg/injection, schedule: Q01DX005 (ip), vehicle: saline with Tween-80 97 % of control | dose: 200.0 mg/kg/injection, schedule: Q01DX005 (ip), vehicle: saline with Tween-80 97 % of control

COC1/C=C/OC2(C)Oc3c(C)c(O)c4c(c3C2=O)C(=O)C2=C(NC(=NC2)/C(C)=C\C=C\C(C)C(O)C(C)C(O)C(C)C(OC(C)=O)C1C)C4=O (stereo not given)
inactive: dose: 6.25 mg/kg/injection, schedule: Q04DX003 (ip), vehicle: other 94 % of control | dose: 12.5 mg/kg/injection, schedule: Q04DX003 (ip), vehicle: other 101 % of control | dose: 25.0 mg/kg/injection, schedule: Q04DX003 (ip), vehicle: other 113 % of control | dose: 50.0 mg/kg/injection, schedule: Q04DX003 (ip), vehicle: other 109 % of control | dose: 100.0 mg/kg/injection, schedule: Q04DX003 (ip), vehicle: other 122 % of control

O=NN(c1ccccc1)c1ccc([N+](=O)[O-])cc1
inactive: [1] 90 % of control | [2] 90 % of control

O=NNc1ccc(S(=O)(=O)c2ccc(NN=O)cc2)cc1
inactive: dose: 3.12 mg/kg/injection, schedule: Q01DX009 (ip), vehicle: water 91 % of control | dose: 6.25 mg/kg/injection, schedule: Q01DX009 (ip), vehicle: water 110 % of control | dose: 12.5 mg/kg/injection, schedule: Q01DX009 (ip), vehicle: water 119 % of control | [3] 116 % of control | dose: 37.5 mg/kg/injection, schedule: Q01DX009 (ip), vehicle: water 122 % of control | [4] 119 % of control | dose: 75.0 mg/kg/injection, schedule: Q01DX009 (ip), vehicle: water 113 % of control

COC(=O)C[CH2][Sn]([CH2]CC(=O)OC)([c]1ccccc1)[c]1ccccc1
inactive: dose: 50.0 mg/kg/injection, schedule: Q01DX005 (ip), vehicle: saline 100 % of control | dose: 100.0 mg/kg/injection, schedule: Q01DX005 (ip), vehicle: saline 100 % of control | dose: 200.0 mg/kg/injection, schedule: Q01DX005 (ip), vehicle: saline 97 % of control

NNC(=O)C(=O)Nc1ccc(F)cc1
inactive: [1] 96 % of control | [2] 100 % of control

CC1C2=C(CC(C)(C)CC2=O)OC2=C1C(=O)CC(C)(C)C2
inactive: [1] 103 % of control | [2] 104 % of control | [5] 99 % of control

O=C1C[C@]2(CC3CO3)C[C@@H](C=CC23OCCO3)O1 (stereo not given in full)
inactive: dose: 1.5 mg/kg/injection, schedule: Q01DX005 (ip), vehicle: acid diluted with saline 99 % of control | dose: 3.0 mg/kg/injection, schedule: Q01DX005 (ip), vehicle: acid diluted with saline 102 % of control | dose: 6.0 mg/kg/injection, schedule: Q01DX005 (ip), vehicle: acid diluted with saline 102 % of control | dose: 12.0 mg/kg/injection, schedule: Q01DX005 (ip), vehicle: acid diluted with saline 107 % of control

COc1ccc(C(C)c2cc3c(cc2OCCO)OCO3)cc1OC (stereo not given)
inactive: dose: 50.0 mg/kg/injection, schedule: Q01DX005 (ip), vehicle: distilled water + Tween-80 97 % of control | dose: 100.0 mg/kg/injection, schedule: Q01DX005 (ip), vehicle: distilled water + Tween-80 93 % of control | dose: 200.0 mg/kg/injection, schedule: Q01DX005 (ip), vehicle: distilled water + Tween-80 97 % of control

CC(C)(C)c1cc(/C=N\O)cc(C(C)(C)C)c1O
inactive: [6] 98 % of control | [7] 107 % of control | [8] 107 % of control

CCOC(=O)Cn1c(O)c(C2=c3cc(Br)ccc3=NC2=O)sc1=O
inactive: dose: 100.0 mg/kg/injection, schedule: Q01DX001 (ip), vehicle: Klucel (hydroxypropylcellulose) (HPC) 95 % of control | dose: 200.0 mg/kg/injection, schedule: Q01DX001 (ip), vehicle: Klucel (hydroxypropylcellulose) (HPC) 98 % of control | dose: 400.0 mg/kg/injection, schedule: Q01DX001 (ip), vehicle: Klucel (hydroxypropylcellulose) (HPC) 99 % of control

CN(C)CC1CCC1N1c2ccccc2Sc2ccc(Cl)cc21 (stereo not given)
inactive: [9] 105 % of control | [10] 100 % of control | dose: 200.0 mg/kg/injection, schedule: Q04DX003 (ip), vehicle: Klucel (hydroxypropylcellulose) (HPC) 98 % of control

O=Cc1cccc(C=O)c1
inactive: dose: 0.63 mg/kg/injection, schedule: Q04DX002 (ip), vehicle: saline with Tween-80 106 % of control | dose: 1.25 mg/kg/injection, schedule: Q04DX002 (ip), vehicle: saline with Tween-80 105 % of control | dose: 2.5 mg/kg/injection, schedule: Q04DX002 (ip), vehicle: saline with Tween-80 107 % of control

C=C1C(=O)OC2/C=C(\CO)C(OC(C)=O)CC(O)/C(C)=C/C(OC(=O)C(C)CC)C12 (stereo not given)
inactive: dose: 6.25 mg/kg/injection, schedule: Q01DX009 (ip), vehicle: Klucel (hydroxypropylcellulose) (HPC) 111 % of control | dose: 12.5 mg/kg/injection, schedule: Q01DX009 (ip), vehicle: Klucel (hydroxypropylcellulose) (HPC) 119 % of control | dose: 100.0 mg/kg/injection, schedule: Q01DX009 (ip), vehicle: Klucel (hydroxypropylcellulose) (HPC) 121 % of control

Brc1cc2ccccc2c2ccccc12
inactive: [1] 99 % of control | [2] 99 % of control | [5] 93 % of control | [11] 93 % of control

C[N+]1(C)CCC(=O)CC1
inactive: dose: 25.0 mg/kg/injection, schedule: Q01DX009 (ip), vehicle: saline with Tween-80 109 % of control | [1] 100 % of control | [2] 104 % of control

Nc1cc(N)c(N=Nc2cccc3c(S(=O)(=O)O)cccc23)cc1N=Nc1cc([N+](=O)[O-])ccc1O
inactive: [6] 109 % of control | [7] 109 % of control | [8] 96 % of control

CC1(C)C/C(=C2\COC(=O)C2=O)NN1c1ccccc1
inactive: [1] 106 % of control | [2] 99 % of control | [5] 105 % of control

COc1ccc2c3c([nH]c2c1)C(C)N(S(=O)(=O)c1ccccc1)CC3 (stereo not given)
inactive: dose: 12.5 mg/kg/injection, schedule: Q01DX005 (ip), vehicle: Klucel (hydroxypropylcellulose) (HPC) 98 % of control | dose: 25.0 mg/kg/injection, schedule: Q01DX005 (ip), vehicle: Klucel (hydroxypropylcellulose) (HPC) 92 % of control | dose: 50.0 mg/kg/injection, schedule: Q01DX005 (ip), vehicle: Klucel (hydroxypropylcellulose) (HPC) 98 % of control | dose: 100.0 mg/kg/injection, schedule: Q01DX005 (ip), vehicle: Klucel (hydroxypropylcellulose) (HPC) 98 % of control | dose: 200.0 mg/kg/injection, schedule: Q01DX005 (ip), vehicle: Klucel (hydroxypropylcellulose) (HPC) 93 % of control

C=CCOC(=O)CCl
inactive: dose: 25.0 mg/kg/injection, schedule: Q04DX003 (ip), vehicle: Klucel (hydroxypropylcellulose) (HPC) 99 % of control | [9] 98 % of control | [10] 93 % of control and 96 % of control

C/C=C/CC1(CC)C(=O)NC(=S)NC1=O
inactive: [1] 100 % of control

Cc1cc(CCNC=O)c(C)c2c1oc1ccccc12
inactive: [1] 110 % of control | [2] 103 % of control | [5] 94 % of control | [11] 94 % of control

OC(c1cc2cc(Cl)ccc2c2cc(C(F)(F)F)ccc12)C1CCCCN1 (stereo not given)
inactive: dose: 6.25 mg/kg/injection, schedule: Q01DX009 (ip), vehicle: saline with Tween-80 106 % of control | dose: 12.5 mg/kg/injection, schedule: Q01DX009 (ip), vehicle: saline with Tween-80 106 % of control

COC1=C(OC)C(C(O)CO)OC1=O (stereo not given)
inactive: [3] 98 % of control | [4] 98 % of control | dose: 100.0 mg/kg/injection, schedule: Q01DX009 (ip), vehicle: water 90 % of control | dose: 200.0 mg/kg/injection, schedule: Q01DX009 (ip), vehicle: water 99 % of control | dose: 400.0 mg/kg/injection, schedule: Q01DX009 (ip), vehicle: water 96 % of control
